For test [1], the system named is coronary arteries (Langendorff's isolated heart). As to the kind of experiment: Langendorff's isolated heart preparation (dilation of coronary arteries). As for the experimental part:
In addition to their utility in the treatment of hypertension, the compounds of formula (I) are useful in the treatment of the symptoms of angina pectoris by virtue of their ability to dilate coronary arteries. Their activity was measured using the "Langendorff's isolated heart" preparation. This test has been described in "Pharmacological Experiments on Isolated Preparations". Staff of the Department of Pharmacology, University of Edinbourgh, 2nd Ed., Churchill Livingstone, N.Y., 1970, pp. 112-119. The test compounds were administered at concentrations of 30.0, 10.0, 3.0, 1.0, 0.3, 0.1, 0.03, and 0.01 micromolar (10^-6 molar).

The test system of test [2] is spontaneously hypertensive rats. Briefly: Spontaneously Hypertensive Rat (SHR) test, arterial pressure. It counts as in vivo, adult spontaneously hypertensive rats (Charles Rivers). Particulars: SH rats, fall of mean arterial pressure. As for the experimental part: The activity of compounds of formula (I) for the treatment of hypertension was determined using the Spontaneously Hypertensive Rat (SHR) test as described below. In this test, the arterial pressure of adult spontaneously hypertensive rats (Charles Rivers) is monitored directly via an aortic cannula. The SH rats are anesthetized with an inhalation anesthetic (ether). The left carotid artery is isolated and cannulated. The tip of the cannula is advanced to the aorta and the cannula is exteriorized behind the neck at the level of the scapula. Animals are placed in individual cages and allowed to recover from the anesthetic and are kept unrestrained. The arterial cannula is connected to the pressure transducer which is attached to the recorder. The test compounds are administered to at least 3 rats at doses selected in the range of 0.1 to 100 mg/kg of body weight by intraperitoneal (i.p.) or oral (p.o.) routes of administration. The arterial pressure and heart rate are monitored for a minimum of 24 hr. A test compound is considered to be active as an antihypertensive agent if the mean arterial pressure (MAP) indicates a fall of >15 mm of Hg. Each animal serves as its own control.

A further test relates to Mongrel dogs. As to the kind of experiment: Myocardial Oxygen Supply and Demand (dog) Test. It counts as in vivo. Particulars: i.v., anesthetized dog; for increasing coronary blood flow: p<0.05. As for the experimental part:
The activity of compounds of formula (I) in the treatment of angina was also determined using the Myocardial Oxygen Supply and Demand (dog) Test as described below.
Mongrel dogs of either sex weighing between 8.4 and 12.3 kg were used for this study. These dogs were obtained from Haycock Farm, Quakertown, PA. They were anesthetized with pentabarbitol Na and ventilated with a Harvard positive pressure respirator (Model 607 , Dover, MA) to maintain their blood pH and gaseous tension within physiological ranges. Heparin-filled polyethylene catheters were implanted into the right femoral artery (PE-260) and the right atrium (PE-180) for the measurement of their respective pressures. The right femoral vein was cannulated with a heparin-filled polyethylene catheter (PE-200) for drug infusion. A thoracotomy was then performed via the left fifth intercostal space. The left circumflex coronary artery was isolated from surrounding fascia and an electromagnetic flow transducer (I.D.=2.0 mm, Gould Statham Inc. Oxnard, CA) placed around it for the measurement of coronary blood flow. A Delmed intravenous catheter (18.5 ga.×8 in., Canton, MA) was inserted into the coronary sinus via a puncture wound made by an 18 ga. needle for coronary venous effluent blood sampling. Arterial oxygen samples were taken from the femoral arterial catheters. Total content of oxygen in whole blood was measured by the Lex-02-Con-TL (Lexington Instruments Corp., Waltham, MA). Myocardial oxygen consumption was estimated by the product of the difference in arterial and coronary sinus oxygen content and coronary blood flow through the left circumflex coronary artery. These techniques have been used extensively to study the effects of calcium channel blockers on myocardial oxygen supply and demand in various animal models. References for these techniques include Jolly, S. R. and Gross, G. J. Effect of FR 7534, A New Calcium Antagonist, On Myocardial Oxygen Demand. Euro. J. Pharm. 54: 289-293, (1979); Ono, H., Ohara, N. and Hashimoto, K. Effect of an Anti-Anginal Drug, Perhexiline, on Myocardial Oxygen Consumption in Anesthetized Open-Chest Dogs Compared With Verapamil and Glyceryl Trinitrate. Jap. Cir. J. 46: 559-567 (1982); and Vater, W. and Schlossman, K. Effects of Nifedipine on the Hemodynamics and Oxygen Consumption of the Heart in Animal Experiments, in: Jatene and Lichtlen, 3rd International Adalat Symposium: New Therapy of Ischemic Heart Disease (Exerpta Medica, Amsterdam, Oxford), p. 33, (1975). Arterial blood pH and gaseous tension were measured by a Corning pH/blood gas analyzer (Model 168, Medfield, MA). Arterial and atrial pressures were measured by connecting their respective catheters to Statham strain-gauge manometers (P23D, Gould Inc., Oxnard, CA). Gould-Statham electromagnetic blood flowmeters (Model SP2202, Oxnard, CA) were used to measure coronary blood flow. Lead II of the EKG was monitored continuously through subcutaneous insertion of stainless steel needle electrodes on the body surface of the animal. The EKG was recorded by a Grass oscillograph (Model 7D, Quincy, MA) with an EKG-pulse pre-amplifier (Model 7P6C) and a Polygraph D.C. driver amplifier (Model 7DAG). All the other recorded variables, i.e., arterial pressure, right atrial pressure and coronary blood flow were recorded by the Grass oscillograph. Coronary vascular resistance was calculated as the quotient of the difference in mean pressure (arterial-right atrial) and left circumflex blood flow. […]

Where a name gives a salt, the structure may show the parent alone.

The compound `CC1(COCC(CN(Cc2ccccc2)c2c(Cl)cccc2Cl)N2CCCC2)CCCCC1.Cl` (stereo not drawn) [Example 1e, N-(2,6-Dichlorophenyl)-beta-[[(1-methylcyclohexyl)methoxy]methyl]-N-(phenylmethyl)-1-pyrrolidineethanamine hydrochloride(1:1)] had an EC30 in test [1] of 4.6 nM. Besides, the “SHR δMAP” value in test [2] (dose 30 (mg/kg), po) is recorded as -60 mm of Hg. Also, in the test on Mongrel dogs (0.25 mg/kg), the decreased arterial pressure was found to be 8% and the “increasing coronary blood flow” value turned out to be 80%. Also, in the test with Mongrel dogs (0.50 mg/kg), the decreased arterial pressure is given as 15% and the “increasing coronary blood flow” value turned out to be 221%. Also, the “myocardial oxygen supply/demand ratio” value in the test on Mongrel dogs (0.25 and 0.50 mg/kg) is “markedly increased”.

`COc1cccc(N(Cc2ccccc2)CC(COCC(C)(C)C)N2CCCC2)c1.O=C(O)/C=C/C(=O)O` (stereo not drawn) [Example 2d, beta-[(2,2-Dimethylpropoxy)methyl]-N-(3-methoxyphenyl)-N-(phenylmethyl)-1-pyrrolidineethanamine (E)-2-Butenedioate (1:1)]: in test [1], the EC30 turned out to be 29 nM. In addition, the “SHR δMAP” value in test [2] (dose 30 (mg/kg), po) is reported as -29 mm of Hg.

As for `CC(C)(C)COCC(CN(Cc1ccccc1)c1ccccc1Cl)N1CCCC1.Cl` (stereo not drawn) [Example 3b, N-(2-Chlorophenyl)-beta-[(2,2-dimethylpropoxy)methyl]-N-(phenylmethyl)-1-pyrrolidineethanamine Hydrochloride (1:1)], in test [1], the EC30 came to 27 nM. For the same compound, the “SHR δMAP” value in test [2] (dose 10 (mg/kg), ip) is -52 mm of Hg; in test [2] (dose 30 (mg/kg), po), -6 mm of Hg.

`CN(C)c1ccc(CN(CC(COCC(C)(C)C)N2CCCC2)c2c(Cl)cccc2Cl)cc1` (stereo not drawn) [Example 4c, N-(2,6-Dichlorophenyl)-N-[[4-(dimethylamino)phenyl]methyl]beta-[(2,2-dimethylpropoxy)methyl]-1-pyrrolidineethanamine Hydrochloride Hydrate (7:7:1)]: the EC30 in test [1] was determined as 1.6 nM. The “SHR δMAP” value is listed as -23 mm of Hg in test [2] (dose 10 (mg/kg), ip) and -14 mm of Hg in test [2] (dose 30 (mg/kg), po).

With `COc1ccc(CN(CC(COCC(C)(C)C)N2CCCC2)c2c(Cl)cccc2Cl)cc1OC.Cl` (stereo not drawn) [Example 5, N-(2,6-Dichlorophenyl)-N-[(3,4-dimethoxyphenyl)methyl]-beta-[(2,2-dimethylpropoxy)methyl]-1-pyrrolidineethanamine-Hydrochloride (1:1)], the EC30 in test [1] was found to be 1 nM. Further, the “SHR δMAP” value in test [2] (dose 30 (mg/kg), po) is recorded as -15 mm of Hg.

`CC(C)(C)COCC(CN(Cc1ccccc1)c1c(Cl)cccc1Cl)N1CCCC1` (stereo not drawn) [Example 6, N-(2,6-Dichlorophenyl)-beta-[(2,2-dimethylpropoxy)methyl]-N-(phenylmethyl)-1-pyrrolidineethanamine Hydrochloride (1:1)] gave an EC30 in test [1] of 7.3 nM. In addition, the “SHR δMAP” value in test [2] (dose 30 (mg/kg), po) was -33 mm of Hg.

`CC(C)(C)COCC(CN(Cc1ccncc1)c1c(Cl)cccc1Cl)N1CCCC1.Cl.Cl` (stereo not drawn) [Example 7, N-(2,6-Dichlorophenyl)-beta-[(2,2-dimethylpropoxy)methyl]-N-(4-pyridinylmethyl)-1-pyrrolidineethanamine Dihydrochloride]: the EC30 in test [1] was determined as 28 nM. For the same compound, the “SHR δMAP” value in test [2] (dose 30 (mg/kg), po) is on record as -37 mm of Hg.

In test [1], `Cc1cccc(C)c1N(Cc1ccccc1)CC(COCC(C)(C)C)N1CCCC1.Cl` (stereo not drawn) [Example 8b, N-(2,6-Dimethylphenyl)-beta-[(2,2-dimethylpropoxy)methyl]-N-(phenylmethyl)-1-pyrrolidineethanamine Hydrochloride] gave a concentration for an effect of 30% (EC30) of 2.8 nM. In addition, the “SHR δMAP” value in test [2] (dose 30 (mg/kg), po) is given as -21 mm of Hg.

The compound `CC(C)(C)COCC(CN(Cc1ccccc1)c1cccc(C(F)(F)F)c1)N1CCCC1.Cl` (stereo not drawn) [Example 9b, beta-[(2,2-Dimethylpropoxy)methyl]-N-(phenylmethyl)-N-[3-(trifluoromethyl)phenyl]-1-pyrrolidineethanamine Hydrochloride] yielded an EC30 in test [1] of 20 nM. Further, the “SHR δMAP” value in test [2] (dose 30 (mg/kg), po) is reported as -28 mm of Hg.

On to `CC(C)(C)COCC(CN(Cc1ccccc1)c1ccccc1)N1CCCC1` (stereo not drawn) [Example 10, β-[(2,2-Dimethylpropoxy)methyl]-N-phenyl-N-(phenylmethyl)-1-pyrrolidineethanamine (E)-2-Butenedioate (1:1)], for which the 30% effect level in test [1] (EC30) was put at 5 nM. Also, the “SHR δMAP” value in test [2] (dose 10 (mg/kg), ip) is -28 mm of Hg; in test [2] (dose 30 (mg/kg), po), -13 mm of Hg.

`CC(C)(C)COCC(CN(CC1CCCCC1)c1c(Cl)cccc1Cl)N1CCCC1` (stereo not drawn) [Example 12, N-(Cyclohexylmethyl)-N-(2,6-dichlorophenyl)-beta-[(2,2-dimethylpropoxy)methyl]-1-pyrrolidineethanamine (E)-2-Butenedioate Hydrate (20:25:2)] yielded an EC30 in test [1] of 3 nM. Moreover, the “SHR δMAP” value in test [2] (dose 30 (mg/kg), po) is listed as -25 mm of Hg.

As to `CC(C)(C)OCC(CN(Cc1ccccc1)c1c(Cl)cccc1Cl)N1CCCC1` (stereo not drawn) [Example 13, N-(2,6-Dichlorophenyl)-beta[ (1,1-dimethylethoxy)methyl]-N-(phenylmethyl)-1-pyrrolidineethanamine Hydrochloride (1:1)], the 30% effect level in test [1] (EC30) was put at 4.3 nM. Besides, the “SHR δMAP” value in test [2] (dose 10 (mg/kg), ip) is reported as -74 mm of Hg; in test [2] (dose 30 (mg/kg), po), -20 mm of Hg.

In the case of “N-(2,6-Dichlorophenyl)-N-(phenylmethyl)-alpha-[[(tricyclo-[3.3.1.1^3,7]dec-1-yl)methoxy]methyl]-1-pyrrolidineethanamine Hydrochloride (1:1) [Example 11c]”, the “Langendorff EC30” value in test [1] was “.010 10^-6 M”. Further, in test [2] (dose 30 (mg/kg), po), the “SHR δMAP” value is listed as -41 mm of Hg.

For orientation: EC30 means the point of the concentration-response curve where the effect stands at 30%.

Values taken from patent US4727072A, “3-alkoxy-2-aminopropylamines compositions and use as cardiovascular agents” (McNeilab, Inc., priority 1986, dated 1988).
